Reference: patent publication US11214803B2, “Modulators of YAP1 expression” (Ionis Pharmaceuticals, Inc., priority 2019, dated 2022)
Strand notation (5' to 3'): a small letter for the sugar, then the base; units joined by * are phosphorothioate-linked, units joined directly phosphodiester-linked; [ ] holds rarer units or linkages, { } end groups; capitals alone tell only the bases. k = constrained ethyl (cEt); [5mC] = 5-methylcytosine; d = 2'-deoxy (DNA)

Columns and labels:
Yap1 mRNA [1] = assay: Dose-dependent inhibition of human Yap1 in A-431 cells (Example 8, 10,000 cells per well, RTS4814); format: cell-based; conditions: A-431 cells; for IC50: Yap1 mRNA
Procedure, shortened: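 Yap1 mRNA, normalized to RIBOGREEN total RNA and expressed as % untreated control, was read with RTS4814 about 48 h after free-uptake oligonucleotide treatment of A-431 cells at 10,000 cells/well. IC50 derived by linear regression of log/linear data.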

Yap1 mRNA [2] = assay: Antisense inhibition of human Yap1 in A-431 cells by cEt gapmers, single dose (Example 4, RTS4814); format: cell-based
Procedure, shortened: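 Values are % UTC: Yap1 mRNA by quantitative RT-PCR, normalized to RIBOGREEN total RNA. Cells were exposed ~48 h to 2,000 nM oligonucleotide without transfection. Oligonucleotides were 16-nucleoside gapmers with three cEt nucleosides per wing, ten-deoxy gap, P=S linkages throughout.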

[3] = Yap1 mRNA remaining as percent of untreated control, 3-10-3 cEt gapmers, A-431 cells, Table 36
[4] = Yap1 mRNA remaining as percent of untreated control, 3-10-3 cEt gapmers, A-431 cells, Table 37

1075990 (k[5mC]*kG*kT*dT*dA*dT*dT*dA*dT*dG*d[5mC]*dA*dG*k[5mC]*kA*kA; antisense) [compound 1075990]
% UTC (Yap1 mRNA) (Yap1 mRNA [1]; 31.3 nM): 28 % UTC | % UTC (Yap1 mRNA) (Yap1 mRNA [1]; 125.0 nM): 6 % UTC | % UTC (Yap1 mRNA) (Yap1 mRNA [1]; 500.0 nM): 3 % UTC | % UTC (Yap1 mRNA) (Yap1 mRNA [1]; 2000.00 nM): 3 % UTC | IC50 (Yap1 mRNA [1]): < 20 nM | YAP1 (% UTC) (Yap1 mRNA [2]; [3]): 1 % UTC

1074679 (antisense kT*k[5mC]*kT*dT*dA*dA*dT*d[5mC]*dT*dG*dT*dG*dG*k[5mC]*kT*kA) [compound 1074679]
% UTC (Yap1 mRNA) (Yap1 mRNA [1]; 31.3 nM): 52 % UTC | % UTC (Yap1 mRNA) (Yap1 mRNA [1]; 125.0 nM): 16 % UTC | % UTC (Yap1 mRNA) (Yap1 mRNA [1]; 500.0 nM): 6 % UTC | % UTC (Yap1 mRNA) (Yap1 mRNA [1]; 2000.00 nM): 5 % UTC | IC50 (Yap1 mRNA [1]): < 20 nM | YAP1 (% UTC) (Yap1 mRNA [2]; [4]): 5 % UTC

1076406 (antisense kA*kT*kT*dA*dT*dT*dT*dA*dA*dG*dA*d[5mC]*d[5mC]*kT*kG*kG) [compound 1076406]
% UTC (Yap1 mRNA) (Yap1 mRNA [1]; 31.3 nM): 51 % UTC | % UTC (Yap1 mRNA) (Yap1 mRNA [1]; 125.0 nM): 20 % UTC | % UTC (Yap1 mRNA) (Yap1 mRNA [1]; 500.0 nM): 9 % UTC | % UTC (Yap1 mRNA) (Yap1 mRNA [1]; 2000.00 nM): 7 % UTC | IC50 (Yap1 mRNA [1]): < 20 nM | YAP1 (% UTC) (Yap1 mRNA [2]; [3]): 4 % UTC

1076119 (kG*kT*kT*dA*dA*dA*dT*dA*dT*dG*dA*dA*dT*kT*kG*kG; antisense) [compound 1076119]
% UTC (Yap1 mRNA) (Yap1 mRNA [1]; 31.3 nM): 82 % UTC | % UTC (Yap1 mRNA) (Yap1 mRNA [1]; 125.0 nM): 35 % UTC | % UTC (Yap1 mRNA) (Yap1 mRNA [1]; 500.0 nM): 12 % UTC | % UTC (Yap1 mRNA) (Yap1 mRNA [1]; 2000.00 nM): 6 % UTC | IC50 (Yap1 mRNA [1]): 100 nM | YAP1 (% UTC) (Yap1 mRNA [2]; [4]): 7 % UTC

1074486 (kA*kT*kT*d[5mC]*dA*d[5mC]*dT*dA*dA*dT*dA*dT*dG*kG*kT*k[5mC]; antisense) [compound 1074486]
% UTC (Yap1 mRNA) (Yap1 mRNA [1]; 31.3 nM): 55 % UTC | % UTC (Yap1 mRNA) (Yap1 mRNA [1]; 125.0 nM): 26 % UTC | % UTC (Yap1 mRNA) (Yap1 mRNA [1]; 500.0 nM): 10 % UTC | % UTC (Yap1 mRNA) (Yap1 mRNA [1]; 2000.00 nM): 6 % UTC | IC50 (Yap1 mRNA [1]): < 20 nM | YAP1 (% UTC) (Yap1 mRNA [2]; [3]): 4 % UTC

1076183 (k[5mC]*kT*kT*d[5mC]*dT*dA*dT*dA*dA*dT*dT*dA*dG*k[5mC]*k[5mC]*kA; antisense) [compound 1076183]
% UTC (Yap1 mRNA) (Yap1 mRNA [1]; 31.3 nM): 65 % UTC | % UTC (Yap1 mRNA) (Yap1 mRNA [1]; 125.0 nM): 22 % UTC | % UTC (Yap1 mRNA) (Yap1 mRNA [1]; 500.0 nM): 9 % UTC | % UTC (Yap1 mRNA) (Yap1 mRNA [1]; 2000.00 nM): 6 % UTC | IC50 (Yap1 mRNA [1]): 40 nM | YAP1 (% UTC) (Yap1 mRNA [2]; [4]): 7 % UTC

1076023 (kA*kT*kA*dA*dT*dT*dA*dG*dA*dT*dG*d[5mC]*dT*kG*kA*k[5mC]; antisense) [compound 1076023]
% UTC (Yap1 mRNA) (Yap1 mRNA [1]; 31.3 nM): 60 % UTC | % UTC (Yap1 mRNA) (Yap1 mRNA [1]; 125.0 nM): 18 % UTC | % UTC (Yap1 mRNA) (Yap1 mRNA [1]; 500.0 nM): 5 % UTC | % UTC (Yap1 mRNA) (Yap1 mRNA [1]; 2000.00 nM): 3 % UTC | IC50 (Yap1 mRNA [1]): < 20 nM | YAP1 (% UTC) (Yap1 mRNA [2]; [4]): 4 % UTC

1074230 (antisense kA*kA*kG*dA*dA*dG*dA*d[5mC]*dT*dG*dT*d[5mC]*dG*kA*kA*kG) [compound 1074230]
% UTC (Yap1 mRNA) (Yap1 mRNA [1]; 31.3 nM): 62 % UTC | % UTC (Yap1 mRNA) (Yap1 mRNA [1]; 125.0 nM): 30 % UTC | % UTC (Yap1 mRNA) (Yap1 mRNA [1]; 500.0 nM): 12 % UTC | % UTC (Yap1 mRNA) (Yap1 mRNA [1]; 2000.00 nM): 8 % UTC | IC50 (Yap1 mRNA [1]): 50 nM | YAP1 (% UTC) (Yap1 mRNA [2]; [3]): 4 % UTC

1074134 (k[5mC]*kG*k[5mC]*dG*dG*d[5mC]*d[5mC]*d[5mC]*d[5mC]*dG*d[5mC]*dA*dT*k[5mC]*k[5mC]*k[5mC]; antisense) [compound 1074134]
YAP1 (% UTC) (Yap1 mRNA [2]; [3]): 79 % UTC

1074166 (antisense kA*k[5mC]*k[5mC]*d[5mC]*dA*dG*dG*d[5mC]*dG*dA*dG*d[5mC]*dG*kA*kG*kG) [compound 1074166]
YAP1 (% UTC) (Yap1 mRNA [2]; [3]): 72 % UTC

1076323 (k[5mC]*kA*kA*dT*dT*dT*dA*d[5mC]*dA*dA*dG*dT*dG*kA*kG*k[5mC]; antisense) [Compound 1076323]
YAP1 (% UTC) (Yap1 mRNA [2]; Table 17, A-431 cells, 5,000 cells per well, free uptake, 2,000 nM, approximately 48 hours, RTS4814, normalized to RIBOGREEN, Yap1 mRNA relative to untreated control cells): 5 % UTC

1075127 (kG*k[5mC]*kT*dA*dA*dA*dT*dT*dA*dT*dG*d[5mC]*dT*kA*kT*kT; antisense) [compound 1075127]
YAP1 (% UTC) (Yap1 mRNA [2]; [4]): 79 % UTC

1074530 (k[5mC]*kT*kA*dA*dA*d[5mC]*dT*dA*d[5mC]*dT*dT*d[5mC]*dA*kA*kA*k[5mC]; antisense) [Compound 1074530]
YAP1 (% UTC) (Yap1 mRNA [2]; Table 16, A-431 cells, 5,000 cells per well, free uptake, 2,000 nM, approximately 48 hours, RTS4814, normalized to RIBOGREEN, Yap1 mRNA relative to untreated control cells): 88 % UTC

1074884 (kG*kG*kG*d[5mC]*dT*dA*dA*d[5mC]*dT*d[5mC]*d[5mC]*dT*dG*k[5mC]*k[5mC]*kG; antisense) [compound 1074884]
YAP1 (% UTC) (Yap1 mRNA [2]; table after Table 37, headed TABLE 32 (gapmers targeting SEQ ID NO.: 3), A-431 cells, free uptake, 2,000 nM, approximately 48 hours, RTS4814): 110 % UTC

1074231 (antisense kA*kA*kA*dG*dA*dA*dG*dA*d[5mC]*dT*dG*dT*d[5mC]*kG*kA*kA) [compound 1074231]
YAP1 (% UTC) (Yap1 mRNA [2]; [4]): 8 % UTC

1075223 (kG*kT*kT*dA*dA*dA*dA*dG*dT*dG*dA*dA*d[5mC]*k[5mC]*k[5mC]*kA; antisense) [compound 1075223]
YAP1 (% UTC) (Yap1 mRNA [2]; [4]): 19 % UTC

1076374 (antisense kA*kT*kA*dA*d[5mC]*dG*dG*dA*dT*dA*dT*dA*d[5mC]*kA*kA*kT) [compound 1076374]
YAP1 (% UTC) (Yap1 mRNA [2]; [3]): 15 % UTC

1076215 (kT*kT*kA*dT*dA*dA*d[5mC]*dA*dG*dA*d[5mC]*dT*dG*kG*k[5mC]*kT; antisense) [compound 1076215]
YAP1 (% UTC) (Yap1 mRNA [2]; [4]): 47 % UTC

1075511 (k[5mC]*kA*kA*dT*dA*dT*dT*dA*dT*d[5mC]*dT*dG*dA*kG*k[5mC]*kT; antisense) [compound 1075511]
YAP1 (% UTC) (Yap1 mRNA [2]; [4]): 106 % UTC
